From ChEMBL document CHEMBL3608269, “Triazole-Linked Glycolipids Enhance the Susceptibility of MRSA to β-Lactam Antibiotics” (ACS Med Chem Lett, 2015) come the findings set out here.

The structures appear in SMILES notation. Activity calls are given as the source filed them. The rule behind the calls is not given here.

Data set [1] relates to Staphylococcus aureus. Nature of the data set: Cellular uptake in methicillin-resistant Staphylococcus aureus ATCC 43300 by HPLC analysis in presence of oxacillin. The following applies: in vivo. The format is ADME, organism-based.
For data set [2], the system named is Staphylococcus aureus. Nature of the data set: Potentiation of oxacillin-mediated antibacterial activity against methicillin-resistant Staphylococcus aureus R15 clinical isolate assessed as decrease in oxacillin MIC at 32 ug/ml after 20 to 24 hrs by CLSI method relative to control. It is filed as functional.
The subject of data set [3] is Staphylococcus aureus. The data set is described as follows: Potentiation of cefepime mediated antibacterial activity against methicillin-resistant Staphylococcus aureus ATCC 43300 assessed as decrease in cefepime MIC at 32 ug/ml by checkerboard method relative to control. It is filed as functional.
In data set [4] the test system is Staphylococcus aureus. Nature of the data set: Potentiation of cefuroxime mediated antibacterial activity against methicillin-resistant Staphylococcus aureus ATCC 43300 assessed as decrease in cefuroxime MIC at 32 ug/ml by checkerboard method relative to control. The format is functional.
Data set [5] relates to Staphylococcus aureus. Nature of the data set: Potentiation of oxacillin-mediated antibacterial activity against methicillin-resistant Staphylococcus aureus R306 clinical isolate assessed as decrease in oxacillin MIC at 32 ug/ml after 20 to 24 hrs by CLSI method relative to control. The format is functional.
Data set [6] has as its system Staphylococcus aureus. The data set is described as follows: Potentiation of oxacillin-mediated antibacterial activity against methicillin-resistant Staphylococcus aureus ATCC 43300 assessed as growth inhibition at 32 ug/ml measured within 6 hrs by time kill assay. The format is functional, organism-based.
Data set [7] has as its system Staphylococcus aureus. Nature of the data set: Potentiation of oxacillin-mediated antibacterial activity against methicillin-resistant Staphylococcus aureus ATCC 43300 assessed as appearance of rougher bacterial surface at 32 ug/ml after 4 hrs by scanning electron microscopic analysis. It is filed as functional, organism-based.
Data set [8] deals with Staphylococcus aureus. Nature of the data set: Potentiation of oxacillin-mediated antibacterial activity against methicillin-resistant Staphylococcus aureus R16 clinical isolate assessed as decrease in oxacillin MIC at 32 ug/ml after 20 to 24 hrs by CLSI method relative to control. It is filed as functional.
Data set [9] relates to Staphylococcus aureus. The data set is described as follows: Potentiation of cephalexin-mediated antibacterial activity against methicillin-resistant Staphylococcus aureus ATCC 43300 assessed as decrease in cephalexin MIC at 32 ug/ml by checkerboard method relative to control. The format is functional.
In data set [10] the test system is Staphylococcus aureus. The data set is described as follows: Potentiation of oxacillin-mediated antibacterial activity against methicillin-resistant Staphylococcus aureus R314 clinical isolate assessed as decrease in oxacillin MIC at 32 ug/ml after 20 to 24 hrs by CLSI method relative to control. The format is functional.
Data set [11] has as its system Staphylococcus aureus. Nature of the data set: Potentiation of cefaclor-mediated antibacterial activity against methicillin-resistant Staphylococcus aureus ATCC 43300 assessed as decrease in cefaclor MIC at 32 ug/ml by checkerboard method relative to control. It is filed as functional.
For data set [12], the system named is Staphylococcus aureus. The data set is described as follows: Potentiation of cephamandole-mediated antibacterial activity against methicillin-resistant Staphylococcus aureus ATCC 43300 assessed as decrease in cephamandole MIC at 32 ug/ml by checkerboard method relative to control. The format is functional.
The test system of data set [13] is Staphylococcus aureus. The data set is described as follows: Potentiation of oxacillin-mediated antibacterial activity against methicillin-resistant Staphylococcus aureus R49 clinical isolate assessed as decrease in oxacillin MIC at 16 ug/ml after 20 to 24 hrs by CLSI method relative to control. It is filed as functional.
The subject of data set [14] is Staphylococcus aureus. Nature of the data set: Potentiation of oxacillin-mediated antibacterial activity against methicillin-resistant Staphylococcus aureus R302 clinical isolate at 32 ug/ml after 20 to 24 hrs by CLSI method. The format is functional.
The test system of data set [15] is Staphylococcus aureus. Nature of the data set: Potentiation of oxacillin-mediated antibacterial activity against methicillin-resistant Staphylococcus aureus R53 clinical isolate at 16 ug/ml after 20 to 24 hrs by CLSI method. The format is functional.
For data set [16], the system named is Staphylococcus aureus. The data set is described as follows: Potentiation of oxacillin-mediated antibacterial activity against methicillin-resistant Staphylococcus aureus R304 clinical isolate at 32 ug/ml after 20 to 24 hrs by CLSI method. It is filed as functional.
The subject of data set [17] is Staphylococcus aureus. Nature of the data set: Potentiation of oxacillin-mediated antibacterial activity against methicillin-resistant Staphylococcus aureus R53 clinical isolate assessed as decrease in oxacillin MIC at 16 ug/ml after 20 to 24 hrs by CLSI method relative to control. The format is functional.
Data set [18] has as its system Staphylococcus aureus. Nature of the data set: Potentiation of oxacillin-mediated antibacterial activity against methicillin-resistant Staphylococcus aureus R50 clinical isolate at 16 ug/ml after 20 to 24 hrs by CLSI method. It is filed as functional.
Data set [19] concerns Staphylococcus aureus. Nature of the data set: Downregulation of mecA mRNA expression in methicillin-resistant Staphylococcus aureus ATCC 43300 at 32 ug/ml after 4 hrs by RT-PCR analysis in presence of oxacillin. It is filed as functional, organism-based.
Data set [20] relates to Staphylococcus aureus. Nature of the data set: Potentiation of cefotiam-mediated antibacterial activity against methicillin-resistant Staphylococcus aureus ATCC 43300 assessed as decrease in cefotiam MIC at 32 ug/ml by checkerboard method relative to control. It is filed as functional.

As for `CCCCCCCCCCCCOCc1cn([C@@H]2O[C@H](CO)[C@@H](O)[C@H](O)[C@H]2O)nn1`, the Drug uptake entry in the data set with Staphylococcus aureus [1] is recorded as “Active”. Further, the MIC – broadly, the lowest concentration that inhibits growth of the organism – came out at 2 µg/mL in the data set on Staphylococcus aureus [2]; 16 µg/mL with Staphylococcus aureus [5]; 4 µg/mL in the data set on Staphylococcus aureus [8]; 32 µg/mL in the data set with Staphylococcus aureus [10]; 8 µg/mL with Staphylococcus aureus [13]; 128 µg/mL in the data set on Staphylococcus aureus [14]. Also, the MIC in the data set with Staphylococcus aureus [15] was under 1 µg/mL; with Staphylococcus aureus [16], 256 µg/mL; in the data set with Staphylococcus aureus [17], 8 µg/mL; with Staphylococcus aureus [18], under 1 µg/mL. The “fold change (FC)” value with Staphylococcus aureus [3], in the data set on Staphylococcus aureus [4], in the data set with Staphylococcus aureus [9], in the data set with Staphylococcus aureus [11], in the data set with Staphylococcus aureus [12] and in the data set on Staphylococcus aureus [20] was “<=256” in each case. Further, the “growth inhibition (GI)” value with Staphylococcus aureus [6] is “Active”. For the same compound, the result with Staphylococcus aureus [7] and in the data set with Staphylococcus aureus [19] was Active.
